Assay results published in ChEMBL document CHEMBL4507290 (2021).

Legend:
[1] = biological target: Ribosomal protein S6 kinase alpha-2 (Homo sapiens) (UniProt Q15349); conditions: Compound concentration 1000.0 nM
[2] = biological target: Ribosomal protein S6 kinase alpha-5 (Homo sapiens) (UniProt O75582); conditions: Compound concentration 1000.0 nM
[3] = tested on: Tyrosine-protein kinase ABL1 (Homo sapiens), P00519 [T315I]; conditions: Compound concentration 1000.0 nM
[4] = biological target: Protein kinase C theta type (Homo sapiens) (UniProt Q04759); conditions: Compound concentration 1000.0 nM
[5] = tested on: Tyrosine-protein kinase ABL1 (Homo sapiens), P00519 [M351T]; conditions: Compound concentration 1000.0 nM
[6] = biological target: Muscarinic acetylcholine receptor M2 (Homo sapiens) (UniProt P08172); conditions: Compound concentration 10.0 uM
[7] = biological target: Serine/threonine-protein kinase D2 (Homo sapiens) (UniProt Q9BZL6); conditions: Compound concentration 1000.0 nM
[8] = biological target: Rhodopsin kinase GRK1 (Homo sapiens) (UniProt Q15835); conditions: Compound concentration 1000.0 nM
[9] = biological target: Serine/threonine-protein kinase Nek4 (Homo sapiens) (UniProt P51957); conditions: Compound concentration 1000.0 nM
[10] = biological target: Ephrin type-B receptor 1 (Homo sapiens) (UniProt P54762); conditions: Compound concentration 1000.0 nM
[11] = biological target: Mitogen-activated protein kinase 14 (Homo sapiens) (UniProt Q16539); conditions: Compound concentration 1000.0 nM
[12] = biological target: Serine/threonine-protein kinase Nek1 (Homo sapiens) (UniProt Q96PY6); conditions: Compound concentration 1000.0 nM
[13] = biological target: Cyclin-dependent kinase 9 (Homo sapiens) (UniProt P50750); conditions: Compound concentration 1000.0 nM
[14] = biological target: Cyclin-dependent kinase 19 (Homo sapiens) (UniProt Q9BWU1); conditions: Compound concentration 1000.0 nM
[15] = biological target: Serine/threonine-protein kinase N1 (Homo sapiens) (UniProt Q16512); conditions: Compound concentration 1000.0 nM
[16] = biological target: 5'-AMP-activated protein kinase catalytic subunit alpha-1 (Homo sapiens) (UniProt Q13131); conditions: Compound concentration 1000.0 nM
[17] = biological target: Myosin light chain kinase family member 4 (Homo sapiens) (UniProt Q86YV6); conditions: Compound concentration 1000.0 nM
[18] = biological target: Casein kinase I isoform delta (Homo sapiens) (UniProt P48730); conditions: Compound concentration 1000.0 nM
[19] = biological target: Phosphatidylinositol 4-kinase beta (Homo sapiens) (UniProt Q9UBF8); conditions: Compound concentration 1000.0 nM
[20] = biological target: Sodium-dependent serotonin transporter (Homo sapiens) (UniProt P31645); conditions: Compound concentration 10.0 uM
[21] = biological target: Atypical kinase COQ8B, mitochondrial (Homo sapiens) (UniProt Q96D53); conditions: Compound concentration 1000.0 nM
[22] = tested on: Phosphatidylinositol 4,5-bisphosphate 3-kinase catalytic subunit alpha isoform (Homo sapiens), P42336 [I800L]; conditions: Compound concentration 1000.0 nM
[23] = biological target: Serine/threonine-protein kinase tousled-like 2 (Homo sapiens) (UniProt Q86UE8); conditions: Compound concentration 1000.0 nM
[24] = tested on: Mast/stem cell growth factor receptor Kit (Homo sapiens), P10721 [D816V]; conditions: Compound concentration 1000.0 nM
[25] = biological target: Mitogen-activated protein kinase 12 (Homo sapiens) (UniProt P53778); conditions: Compound concentration 1000.0 nM
[26] = biological target: Dual specificity protein kinase CLK1 (Homo sapiens) (UniProt P49759); conditions: Compound concentration 1000.0 nM
[27] = biological target: MAP/microtubule affinity-regulating kinase 3 (Homo sapiens) (UniProt P27448); conditions: Compound concentration 1000.0 nM
[28] = biological target: Serine/threonine-protein kinase MARK2 (Homo sapiens) (UniProt Q7KZI7); conditions: Compound concentration 1000.0 nM
[29] = biological target: Cyclin-dependent kinase 4 (Homo sapiens) (UniProt P11802); conditions: Compound concentration 1000.0 nM
[30] = biological target: Mitogen-activated protein kinase 4 (Homo sapiens) (UniProt P31152); conditions: Compound concentration 1000.0 nM
[31] = biological target: Ephrin type-A receptor 1 (Homo sapiens) (UniProt P21709); conditions: Compound concentration 1000.0 nM
[32] = biological target: Mitogen-activated protein kinase kinase kinase 4 (Homo sapiens) (UniProt Q9Y6R4); conditions: Compound concentration 1000.0 nM
[33] = biological target: Serine/threonine-protein kinase 17A (Homo sapiens) (UniProt Q9UEE5); conditions: Compound concentration 1000.0 nM
[34] = biological target: Dual specificity mitogen-activated protein kinase kinase 1 (Homo sapiens) (UniProt Q02750); conditions: Compound concentration 1000.0 nM
[35] = tested on: Receptor-type tyrosine-protein kinase FLT3 (Homo sapiens), P36888 [D835H]; conditions: Compound concentration 1000.0 nM
[36] = biological target: Serine/threonine-protein kinase 26 (Homo sapiens) (UniProt Q9P289); conditions: Compound concentration 1000.0 nM
[37] = biological target: TGF-beta receptor type-1 (Homo sapiens) (UniProt P36897); conditions: Compound concentration 1000.0 nM
[38] = biological target: Cyclin-dependent kinase 16 (Homo sapiens) (UniProt Q00536); conditions: Compound concentration 1000.0 nM
[39] = biological target: Tyrosine-protein kinase Fgr (Homo sapiens) (UniProt P09769); conditions: Compound concentration 1000.0 nM
[40] = biological target: Protein-tyrosine kinase 2-beta (Homo sapiens) (UniProt Q14289); conditions: Compound concentration 1000.0 nM
[41] = biological target: Phosphatidylinositol 3-kinase catalytic subunit type 3 (Homo sapiens) (UniProt Q8NEB9); conditions: Compound concentration 1000.0 nM
[42] = biological target: Beta-2 adrenergic receptor (Homo sapiens) (UniProt P07550); conditions: Compound concentration 10.0 uM
[43] = biological target: cGMP-dependent protein kinase 1 (Homo sapiens) (UniProt Q13976); conditions: Compound concentration 1000.0 nM
[44] = biological target: Casein kinase I isoform gamma-1 (Homo sapiens) (UniProt Q9HCP0); conditions: Compound concentration 1000.0 nM
[45] = biological target: Serine/threonine-protein kinase haspin (Homo sapiens) (UniProt Q8TF76); conditions: Compound concentration 1000.0 nM
[46] = biological target: Serine/threonine-protein kinase pim-1 (Homo sapiens) (UniProt P11309); conditions: Compound concentration 1000.0 nM
Serine/threonine-protein kinase pim-1 (Homo sapiens), sequence (P11309 whole entry, looked up): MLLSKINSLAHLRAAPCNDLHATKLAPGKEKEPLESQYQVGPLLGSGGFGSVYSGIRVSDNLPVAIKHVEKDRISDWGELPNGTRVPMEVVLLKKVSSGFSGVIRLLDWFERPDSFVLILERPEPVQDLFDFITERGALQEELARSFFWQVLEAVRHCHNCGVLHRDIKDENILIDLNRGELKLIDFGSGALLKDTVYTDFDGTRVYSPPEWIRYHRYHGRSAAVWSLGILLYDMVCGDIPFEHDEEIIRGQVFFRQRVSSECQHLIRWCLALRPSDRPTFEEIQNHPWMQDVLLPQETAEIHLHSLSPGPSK

Myosin light chain kinase family member 4 (Homo sapiens), sequence (Q86YV6 whole entry, canonical isoform): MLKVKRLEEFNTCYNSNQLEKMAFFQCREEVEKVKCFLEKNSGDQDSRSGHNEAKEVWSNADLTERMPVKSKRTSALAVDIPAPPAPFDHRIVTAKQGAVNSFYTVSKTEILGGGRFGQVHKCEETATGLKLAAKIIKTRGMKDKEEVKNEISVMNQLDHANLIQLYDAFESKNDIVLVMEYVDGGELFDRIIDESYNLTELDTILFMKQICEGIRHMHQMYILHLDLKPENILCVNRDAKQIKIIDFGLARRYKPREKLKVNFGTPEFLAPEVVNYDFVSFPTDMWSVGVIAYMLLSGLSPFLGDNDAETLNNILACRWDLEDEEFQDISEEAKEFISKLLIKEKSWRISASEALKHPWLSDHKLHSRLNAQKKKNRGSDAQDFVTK
Phosphatidylinositol 4-kinase beta (Homo sapiens), sequence (Q9UBF8 2-816 limits assumed): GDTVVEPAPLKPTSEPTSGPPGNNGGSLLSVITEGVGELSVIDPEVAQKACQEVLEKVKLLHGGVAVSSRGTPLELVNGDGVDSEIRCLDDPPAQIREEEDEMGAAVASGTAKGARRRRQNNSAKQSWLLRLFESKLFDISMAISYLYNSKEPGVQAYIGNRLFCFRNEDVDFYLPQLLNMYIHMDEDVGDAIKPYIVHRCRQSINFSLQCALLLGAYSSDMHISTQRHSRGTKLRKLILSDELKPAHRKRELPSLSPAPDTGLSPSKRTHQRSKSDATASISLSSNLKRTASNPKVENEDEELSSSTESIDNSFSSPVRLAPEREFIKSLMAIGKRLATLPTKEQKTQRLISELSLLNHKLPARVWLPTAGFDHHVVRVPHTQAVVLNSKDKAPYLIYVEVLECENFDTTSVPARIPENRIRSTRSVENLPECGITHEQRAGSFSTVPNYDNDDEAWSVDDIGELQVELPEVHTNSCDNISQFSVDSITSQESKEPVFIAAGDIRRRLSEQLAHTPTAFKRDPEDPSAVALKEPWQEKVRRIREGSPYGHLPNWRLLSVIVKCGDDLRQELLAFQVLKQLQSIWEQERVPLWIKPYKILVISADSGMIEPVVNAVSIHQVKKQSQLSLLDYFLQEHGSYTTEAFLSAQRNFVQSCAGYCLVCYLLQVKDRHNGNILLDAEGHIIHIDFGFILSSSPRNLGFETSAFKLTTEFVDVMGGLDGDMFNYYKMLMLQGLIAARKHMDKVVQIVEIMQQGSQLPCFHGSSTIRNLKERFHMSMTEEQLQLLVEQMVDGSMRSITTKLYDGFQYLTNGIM
MAP/microtubule affinity-regulating kinase 3 (Homo sapiens), sequence (P27448 whole entry, looked up): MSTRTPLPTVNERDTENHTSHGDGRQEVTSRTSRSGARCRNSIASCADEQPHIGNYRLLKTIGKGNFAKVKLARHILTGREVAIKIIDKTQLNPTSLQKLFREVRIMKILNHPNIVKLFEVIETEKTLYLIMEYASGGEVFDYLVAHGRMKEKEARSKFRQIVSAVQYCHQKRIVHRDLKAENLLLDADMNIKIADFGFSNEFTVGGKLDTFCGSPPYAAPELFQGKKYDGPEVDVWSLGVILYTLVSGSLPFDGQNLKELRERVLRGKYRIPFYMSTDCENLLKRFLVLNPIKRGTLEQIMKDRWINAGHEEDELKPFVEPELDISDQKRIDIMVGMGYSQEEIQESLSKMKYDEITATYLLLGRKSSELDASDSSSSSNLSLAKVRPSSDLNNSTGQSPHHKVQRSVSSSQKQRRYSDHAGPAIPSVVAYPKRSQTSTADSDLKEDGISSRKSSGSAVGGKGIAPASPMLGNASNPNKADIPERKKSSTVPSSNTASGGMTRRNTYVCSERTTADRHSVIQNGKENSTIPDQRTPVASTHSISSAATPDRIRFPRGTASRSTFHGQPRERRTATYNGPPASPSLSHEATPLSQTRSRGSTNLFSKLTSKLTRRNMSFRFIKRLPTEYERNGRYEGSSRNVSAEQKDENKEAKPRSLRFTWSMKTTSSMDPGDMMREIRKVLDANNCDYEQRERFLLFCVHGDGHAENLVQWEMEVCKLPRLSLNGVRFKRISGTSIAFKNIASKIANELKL
Dual specificity mitogen-activated protein kinase kinase 1 (Homo sapiens), sequence (Q02750 whole entry): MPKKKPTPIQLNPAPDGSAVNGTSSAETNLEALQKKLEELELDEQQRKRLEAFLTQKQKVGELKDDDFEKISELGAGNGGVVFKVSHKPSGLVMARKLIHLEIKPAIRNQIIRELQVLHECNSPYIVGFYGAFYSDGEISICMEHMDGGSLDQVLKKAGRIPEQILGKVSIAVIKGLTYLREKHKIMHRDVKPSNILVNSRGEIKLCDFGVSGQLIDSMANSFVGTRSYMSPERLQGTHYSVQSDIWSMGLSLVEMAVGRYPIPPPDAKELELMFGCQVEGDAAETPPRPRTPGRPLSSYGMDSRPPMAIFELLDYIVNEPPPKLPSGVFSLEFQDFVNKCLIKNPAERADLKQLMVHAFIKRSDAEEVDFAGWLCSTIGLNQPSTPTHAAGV
Muscarinic acetylcholine receptor M2 (Homo sapiens), sequence (P08172 whole entry): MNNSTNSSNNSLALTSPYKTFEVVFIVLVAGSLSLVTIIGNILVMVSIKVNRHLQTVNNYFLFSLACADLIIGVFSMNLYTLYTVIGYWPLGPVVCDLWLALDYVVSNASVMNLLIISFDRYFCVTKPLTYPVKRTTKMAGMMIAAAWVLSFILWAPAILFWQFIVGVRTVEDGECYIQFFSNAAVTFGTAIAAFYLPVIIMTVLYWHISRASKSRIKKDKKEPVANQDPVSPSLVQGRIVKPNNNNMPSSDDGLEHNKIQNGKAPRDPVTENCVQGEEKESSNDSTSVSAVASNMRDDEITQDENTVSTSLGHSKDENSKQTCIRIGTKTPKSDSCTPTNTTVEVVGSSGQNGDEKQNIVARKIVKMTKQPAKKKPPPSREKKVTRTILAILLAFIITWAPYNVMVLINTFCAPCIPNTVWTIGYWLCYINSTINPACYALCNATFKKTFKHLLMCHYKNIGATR
TGF-beta receptor type-1 (Homo sapiens), sequence (P36897 whole entry): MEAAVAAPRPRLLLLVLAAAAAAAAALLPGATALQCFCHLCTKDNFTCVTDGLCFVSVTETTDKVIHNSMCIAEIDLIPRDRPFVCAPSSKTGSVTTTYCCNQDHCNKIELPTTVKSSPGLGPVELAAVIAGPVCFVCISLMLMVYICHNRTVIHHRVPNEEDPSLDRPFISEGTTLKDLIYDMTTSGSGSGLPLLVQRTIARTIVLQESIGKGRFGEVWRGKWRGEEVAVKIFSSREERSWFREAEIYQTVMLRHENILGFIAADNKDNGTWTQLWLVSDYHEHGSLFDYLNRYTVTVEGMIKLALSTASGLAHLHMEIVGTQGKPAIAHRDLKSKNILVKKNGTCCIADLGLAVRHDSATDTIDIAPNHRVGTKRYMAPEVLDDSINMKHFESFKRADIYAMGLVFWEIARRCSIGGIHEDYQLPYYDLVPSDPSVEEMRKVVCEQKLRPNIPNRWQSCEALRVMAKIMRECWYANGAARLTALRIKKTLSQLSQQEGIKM
Mitogen-activated protein kinase 14 (Homo sapiens), sequence (Q16539 whole entry): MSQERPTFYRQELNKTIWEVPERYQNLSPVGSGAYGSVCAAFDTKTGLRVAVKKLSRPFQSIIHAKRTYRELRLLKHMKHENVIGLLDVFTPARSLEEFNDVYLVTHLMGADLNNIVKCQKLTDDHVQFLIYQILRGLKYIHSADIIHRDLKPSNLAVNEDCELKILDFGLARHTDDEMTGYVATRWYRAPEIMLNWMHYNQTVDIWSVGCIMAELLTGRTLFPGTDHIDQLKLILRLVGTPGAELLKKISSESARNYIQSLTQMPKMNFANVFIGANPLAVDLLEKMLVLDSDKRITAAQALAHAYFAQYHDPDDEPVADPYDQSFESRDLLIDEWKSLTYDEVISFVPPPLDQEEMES
Ephrin type-A receptor 1 (Homo sapiens), sequence (P21709 whole entry): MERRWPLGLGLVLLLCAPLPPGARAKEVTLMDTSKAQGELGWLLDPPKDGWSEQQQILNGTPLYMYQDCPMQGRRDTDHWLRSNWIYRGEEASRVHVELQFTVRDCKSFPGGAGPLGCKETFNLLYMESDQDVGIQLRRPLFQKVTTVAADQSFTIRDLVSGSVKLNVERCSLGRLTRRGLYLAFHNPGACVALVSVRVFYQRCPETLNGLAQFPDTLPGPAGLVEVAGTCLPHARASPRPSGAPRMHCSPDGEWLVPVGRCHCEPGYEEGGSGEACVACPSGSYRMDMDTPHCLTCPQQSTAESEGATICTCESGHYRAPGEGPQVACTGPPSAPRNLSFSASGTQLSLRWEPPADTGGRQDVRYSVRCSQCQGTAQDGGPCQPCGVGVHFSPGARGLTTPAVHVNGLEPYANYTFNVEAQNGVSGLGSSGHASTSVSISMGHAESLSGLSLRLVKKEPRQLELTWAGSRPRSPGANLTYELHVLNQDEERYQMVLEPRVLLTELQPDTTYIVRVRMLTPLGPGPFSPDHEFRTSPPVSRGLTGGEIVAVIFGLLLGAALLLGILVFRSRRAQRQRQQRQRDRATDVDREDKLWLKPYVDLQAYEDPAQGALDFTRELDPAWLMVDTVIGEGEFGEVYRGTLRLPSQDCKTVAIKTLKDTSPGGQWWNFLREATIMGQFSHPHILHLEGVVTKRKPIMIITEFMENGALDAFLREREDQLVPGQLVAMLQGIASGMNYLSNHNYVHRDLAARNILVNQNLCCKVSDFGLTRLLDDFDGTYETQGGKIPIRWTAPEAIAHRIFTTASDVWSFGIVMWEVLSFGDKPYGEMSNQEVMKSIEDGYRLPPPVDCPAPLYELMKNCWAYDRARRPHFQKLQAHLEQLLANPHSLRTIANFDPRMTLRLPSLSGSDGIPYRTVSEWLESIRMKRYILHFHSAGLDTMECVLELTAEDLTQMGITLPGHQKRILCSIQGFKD

CN([C@@H]1CCc2c(CC(=O)O)c3cc(S(C)(=O)=O)ccc3n2C1)S(=O)(=O)c1ccc(F)cc1
inactive: residual activity [1] 99% | residual activity [2] 71% | residual activity [3] 93% | residual activity [4] 78% | residual activity [5] 86% | inhibition [6] -9.24% | residual activity [7] 100% | residual activity [8] 70% | residual activity [9] 91% | residual activity [10] 100% | residual activity [11] 100% | residual activity [12] 100% | residual activity [13] 100% | residual activity [14] 100% | residual activity [15] 90% | residual activity [16] 85% | residual activity [17] 100% | residual activity [18] 100% | residual activity [19] 98% | inhibition [20] 5.16% | residual activity [21] 100% | residual activity [22] 72% | residual activity [23] 100% | residual activity [24] 95% | residual activity [25] 100% | residual activity [26] 100% | residual activity [27] 100% | residual activity [28] 100% | residual activity [29] 91% | residual activity [30] 100% | residual activity [31] 88% | residual activity [32] 79% | residual activity [33] 100% | residual activity [34] 98% | residual activity [35] 76% | residual activity [36] 77% | residual activity [37] 100% | residual activity [38] 84% | residual activity [39] 84% | residual activity [40] 100% | residual activity [41] 100% | inhibition [42] 0.0525% | residual activity [43] 95% | residual activity [44] 91% | residual activity [45] 83% | residual activity [46] 100%

CN([C@@H]1CCc2c(CC(=O)O)c3ccccc3n2C1)S(=O)(=O)c1ccc(F)cc1 [MK-7246]
inactive: residual activity [1] 84% | residual activity [2] 79% | residual activity [3] 98% | residual activity [4] 83% | residual activity [5] 100% | inhibition [6] -0.4% | residual activity [7] 100% | residual activity [8] 88% | residual activity [9] 100% | residual activity [10] 100% | residual activity [11] 100% | residual activity [12] 100% | residual activity [13] 100% | residual activity [14] 94% | residual activity [15] 83% | residual activity [16] 100% | residual activity [17] 100% | residual activity [18] 100% | residual activity [19] 100% | inhibition [20] 9.29% | residual activity [21] 100% | residual activity [22] 79% | residual activity [23] 100% | residual activity [24] 100% | residual activity [25] 94% | residual activity [26] 100% | residual activity [27] 100% | residual activity [28] 100% | residual activity [29] 99% | residual activity [30] 100% | residual activity [31] 100% | residual activity [32] 87% | residual activity [33] 100% | residual activity [34] 100% | residual activity [35] 91% | residual activity [36] 79% | residual activity [37] 100% | residual activity [38] 98% | residual activity [39] 93% | residual activity [40] 100% | residual activity [41] 97% | inhibition [42] -7.68% | residual activity [43] 100% | residual activity [44] 100% | residual activity [45] 100% | residual activity [46] 96%
